In publication PMC6352943, “Novel pyrazolo[3,4-d]pyrimidines: design, synthesis, anticancer activity, dual EGFR/ErbB2 receptor tyrosine kinases inhibitory activity, effects on cell cycle profile and caspase-3-mediated apoptosis” (Journal of Enzyme Inhibition and Medicinal Chemistry, 2019):

Test system: OVCAR-4 cells
Test: Cell cycle analysis by flow cytometry (PI)
Type: cell-based, human
Experimental: After treatment, the cells were washed twice with ice-cold PBS, collected by centrifugation, and fixed in ice-cold 70% (v/v) ethanol, washed with PBS, re-suspended with 0.1 mg/mL RNase, stained with […] propidium iodide (PI), and analysed by flow cytometry using FACS Calibur (Becton Dickinson)[31]. The cell cycle distributions were calculated using Cell-Quest software (Becton Dickinson).

[1] = OVCAR-4, 7d at IC50 (1.74 μM), 24 h

SMILES: Cc1nn(-c2ccc(F)cc2)c2ncnc(Nc3ccc(F)c(Cl)c3)c12 [Compound 7d, N-(3-Chloro-4-fluorophenyl)-1–(4-fluorophenyl)-3-methyl-1H-pyrazolo[3,4-d] pyrimidin-4-amine]
- Cell cycle distribution %Apoptosis (pre-G1) [1]: 21.71%
- Cell cycle distribution %G0/G1 [1]: 29.77%
- Cell cycle distribution %G2/M [1]: 36.44%
- Cell cycle distribution %S [1]: 33.79%
- Increase in cells accumulated in pre-G1 phase compared to control (OVCAR-4, at IC50, 24 h): ~11 folds
- Increase in percentage of cells at G2/M phases compared to control (OVCAR-4, at IC50, 24 h): 5 folds
